This note sets out measurements from ChEMBL document CHEMBL5143621, “Design, synthesis, and biological evaluation of β-carboline 1,3,4-oxadiazole based hybrids as HDAC inhibitors with potential antitumor effects” (Bioorg Med Chem Lett, 2022).

Structures are written as SMILES. The source made the active and inactive calls. The calls are words filed in the database; no cut-off is given here.

Data set [1] concerns HCT-116. Kind of data set: Antiproliferative activity against human HCT-116 cells assessed as inhibition of cell proliferation incubated for 72 hrs by MTT assay. The data set is classed as functional, cell-based. Conditions: HCT-116, 72 h. In general terms: Tetrazolium dyes change colour on reduction, which living cells bring about.
The target in a further data set is Histone deacetylase 1 (Homo sapiens, UniProt Q13547). Briefly: Inhibition of HDAC1 (unknown origin).
Histone deacetylase 1, sequence (Q13547 whole entry): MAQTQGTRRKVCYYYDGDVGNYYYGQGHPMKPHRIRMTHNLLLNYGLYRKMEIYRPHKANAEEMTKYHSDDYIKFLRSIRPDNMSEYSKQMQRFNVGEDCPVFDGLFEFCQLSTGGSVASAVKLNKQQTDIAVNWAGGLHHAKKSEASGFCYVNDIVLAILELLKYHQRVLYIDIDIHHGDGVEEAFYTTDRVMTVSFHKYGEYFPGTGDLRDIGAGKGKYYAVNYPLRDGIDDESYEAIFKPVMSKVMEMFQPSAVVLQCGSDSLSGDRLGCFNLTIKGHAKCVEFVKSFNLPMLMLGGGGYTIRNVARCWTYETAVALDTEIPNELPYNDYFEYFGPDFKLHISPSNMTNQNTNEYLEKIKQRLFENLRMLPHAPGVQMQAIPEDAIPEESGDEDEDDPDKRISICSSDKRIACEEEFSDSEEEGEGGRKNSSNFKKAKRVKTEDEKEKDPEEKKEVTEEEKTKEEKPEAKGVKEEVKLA
The next data set has as its system A549. Kind of data set: cells. Format: functional, cell-based. The note with it: Homo sapiens, A549, 72 h.
The next data set deals with MCF7. Kind of data set: cells. The data set is classed as functional, cell-based. The note with it: Homo sapiens, MCF7, 72 h.
For the next data set, the target named is Histone deacetylase 2 (Homo sapiens, UniProt Q92769). Kind of data set: Inhibition of HDAC2 (unknown origin).
Histone deacetylase 2, sequence (Q92769 whole entry): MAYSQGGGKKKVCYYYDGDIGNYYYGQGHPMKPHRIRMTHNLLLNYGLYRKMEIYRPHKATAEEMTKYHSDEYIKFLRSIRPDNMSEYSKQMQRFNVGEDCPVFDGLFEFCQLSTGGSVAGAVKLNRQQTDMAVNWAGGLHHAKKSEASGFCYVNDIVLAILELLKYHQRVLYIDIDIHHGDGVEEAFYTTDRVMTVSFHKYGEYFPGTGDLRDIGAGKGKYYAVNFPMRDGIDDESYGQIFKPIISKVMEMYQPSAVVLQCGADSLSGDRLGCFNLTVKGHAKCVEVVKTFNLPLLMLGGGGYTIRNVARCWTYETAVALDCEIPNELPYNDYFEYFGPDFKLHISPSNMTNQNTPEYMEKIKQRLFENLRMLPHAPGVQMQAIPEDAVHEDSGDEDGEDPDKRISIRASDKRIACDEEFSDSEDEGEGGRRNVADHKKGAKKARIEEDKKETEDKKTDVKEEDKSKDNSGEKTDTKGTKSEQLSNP
Another data set deals with Histone deacetylase 3 (Homo sapiens, UniProt O15379). Briefly: Inhibition of HDAC3 (unknown origin).
Histone deacetylase 3, sequence (O15379 whole entry): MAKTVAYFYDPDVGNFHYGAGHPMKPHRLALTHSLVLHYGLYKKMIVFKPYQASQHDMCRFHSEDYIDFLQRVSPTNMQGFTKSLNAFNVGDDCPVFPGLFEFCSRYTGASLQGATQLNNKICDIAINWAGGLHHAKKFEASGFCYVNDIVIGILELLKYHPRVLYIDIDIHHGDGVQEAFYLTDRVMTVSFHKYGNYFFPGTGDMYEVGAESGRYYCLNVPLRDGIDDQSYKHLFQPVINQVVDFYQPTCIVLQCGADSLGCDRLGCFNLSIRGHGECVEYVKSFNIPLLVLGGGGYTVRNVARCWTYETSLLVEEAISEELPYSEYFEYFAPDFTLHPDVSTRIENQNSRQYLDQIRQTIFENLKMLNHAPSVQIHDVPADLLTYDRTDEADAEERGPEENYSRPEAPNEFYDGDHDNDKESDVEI
In data set [2] the target is T1, Protein deacetylase HDAC6 (Homo sapiens, UniProt Q9UBN7).
T1 sequence (Q9UBN7 whole entry): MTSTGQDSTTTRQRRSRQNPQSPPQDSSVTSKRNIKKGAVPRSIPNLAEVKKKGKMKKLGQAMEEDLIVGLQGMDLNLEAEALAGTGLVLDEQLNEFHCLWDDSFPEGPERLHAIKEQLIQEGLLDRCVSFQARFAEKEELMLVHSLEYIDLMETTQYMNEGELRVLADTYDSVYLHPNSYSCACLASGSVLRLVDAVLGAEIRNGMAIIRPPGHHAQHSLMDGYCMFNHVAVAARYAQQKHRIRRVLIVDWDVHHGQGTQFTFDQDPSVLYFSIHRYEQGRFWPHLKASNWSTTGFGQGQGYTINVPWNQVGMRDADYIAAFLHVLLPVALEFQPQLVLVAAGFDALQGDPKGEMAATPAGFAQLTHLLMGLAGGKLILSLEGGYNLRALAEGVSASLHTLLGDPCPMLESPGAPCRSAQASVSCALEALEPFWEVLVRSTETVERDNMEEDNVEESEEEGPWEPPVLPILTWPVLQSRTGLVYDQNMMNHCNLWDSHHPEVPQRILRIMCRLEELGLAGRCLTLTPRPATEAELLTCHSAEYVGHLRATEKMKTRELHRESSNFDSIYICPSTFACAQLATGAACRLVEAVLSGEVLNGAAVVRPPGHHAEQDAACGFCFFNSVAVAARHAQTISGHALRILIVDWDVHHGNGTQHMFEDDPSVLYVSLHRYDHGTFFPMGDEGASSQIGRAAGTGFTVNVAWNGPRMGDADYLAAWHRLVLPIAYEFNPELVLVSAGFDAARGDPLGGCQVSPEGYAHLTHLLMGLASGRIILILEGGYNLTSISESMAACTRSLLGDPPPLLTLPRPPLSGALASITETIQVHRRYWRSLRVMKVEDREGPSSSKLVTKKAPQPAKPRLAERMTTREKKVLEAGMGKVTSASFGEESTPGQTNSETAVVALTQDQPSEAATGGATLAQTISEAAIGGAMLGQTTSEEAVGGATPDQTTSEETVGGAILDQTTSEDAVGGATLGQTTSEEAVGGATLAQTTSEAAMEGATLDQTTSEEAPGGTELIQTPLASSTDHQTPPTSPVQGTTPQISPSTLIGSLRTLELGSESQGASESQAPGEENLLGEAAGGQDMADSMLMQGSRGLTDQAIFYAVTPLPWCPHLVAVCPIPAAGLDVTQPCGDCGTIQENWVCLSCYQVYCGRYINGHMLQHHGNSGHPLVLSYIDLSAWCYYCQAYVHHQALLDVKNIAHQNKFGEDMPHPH
Kind of data set: Inhibition of HDAC6 (unknown origin).

The target in the next data set is T2, Histone deacetylase 8 (Homo sapiens, UniProt Q9BY41).
T2 sequence (Q9BY41 whole entry): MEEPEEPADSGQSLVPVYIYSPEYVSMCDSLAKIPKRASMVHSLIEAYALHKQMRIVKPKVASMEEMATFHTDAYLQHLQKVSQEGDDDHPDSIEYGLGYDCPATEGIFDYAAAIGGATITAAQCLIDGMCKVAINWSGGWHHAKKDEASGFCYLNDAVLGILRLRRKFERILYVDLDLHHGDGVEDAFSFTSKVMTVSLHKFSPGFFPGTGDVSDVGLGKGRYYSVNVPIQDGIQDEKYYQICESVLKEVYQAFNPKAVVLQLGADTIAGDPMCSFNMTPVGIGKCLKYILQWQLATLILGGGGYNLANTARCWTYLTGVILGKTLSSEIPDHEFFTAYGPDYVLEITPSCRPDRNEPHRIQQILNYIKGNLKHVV
Kind of data set: Inhibition of HDAC8 (unknown origin).

The test system of the next data set is SW480. Briefly: cells. Format: functional, cell-based. The note with it: Homo sapiens, SW480, 72 h.
Data set [3] concerns HCT-116. Briefly: Induction of apoptosis in human HCT-116 cells assessed as increase in number of brilliant blue apoptotic cells at 125 to 500 nM incubated for 48 hrs by Hoechst 33342 staining based fluorescence microscopic analysis. Format: functional, cell-based. Conditions: dose 125-500 nM.
In data set [4] the test system is HCT-116. Kind of data set: Inhibition of colony formation in human HCT-116 cell incubated for 48 hrs by crystal violet staining based analysis. Conditions: dose 125-500 nM, DDE = dose-dependent effect. Format: functional.
The subject of data set [5] is HCT-116. Briefly: Induction of apoptosis in human HCT-116 cells at 125 to 500 nM incubated for 48 hrs by AnnexinV-FITC/PI staining based flow cytometry. Format: functional, cell-based. Conditions: dose 125-500 nM.
Data set [6] concerns HCT-116. Kind of data set: Inhibition of cell migration in human HCT-116 cells incubated for 48 hrs by wound healing scratch assay. The note with it: dose 125-500 nM, DDE = dose-dependent effect. The data set is classed as functional, cell-based.
A further data set can be described thus: in vitro. The note with it: human, L02 cells.

Description for A549: Antiproliferative activity against human A549 cells assessed as inhibition of cell proliferation incubated for 72 hrs by MTT assay
Description for MCF7: Antiproliferative activity against human MCF7 cells assessed as inhibition of cell proliferation incubated for 72 hrs by MTT assay
Description for SW480: Antiproliferative activity against human SW480 cells assessed as inhibition of cell proliferation incubated for 72 hrs by MTT assay
Description for in vitro: Cytotoxicity against human L02 cells assessed as inhibition of cell proliferation incubated for 72 hrs by MTT assay

Broadly, the IC50 is the midpoint of a concentration-inhibition curve. Turning to `O=C(CCc1nnc(-c2cc3c([nH]c4ccccc43)c(-c3ccc(C(F)(F)F)cc3)n2)o1)NO`, the IC50 in the data set with HCT-116 [1] amounted to 2.31 µM.

Regarding `O=C(CCCc1nnc(-c2cc3c([nH]c4ccccc43)c(-c3ccccc3)n2)o1)NO`, the IC50 in the data set on HCT-116 [1] came out at 7.18 µM.

`O=C(NO)c1ccc(-c2nnc(-c3cc4c([nH]c5ccccc54)c(-c4ccc(C(F)(F)F)cc4)n3)o2)cc1`: the IC50 with HCT-116 [1] turned out to be 9.4 µM.

With `O=C(CCCCc1nnc(-c2cc3c([nH]c4ccccc43)c(-c3ccccc3)n2)o1)NO`, the IC50 was 0.247 µM in the data set with HCT-116 [1], 0.0012 µM against Histone deacetylase 1, under 5 µM in the data set with A549 and 3.76 µM in the data set with MCF7.

`O=C(CCCCc1nnc(-c2cc3c([nH]c4ccccc43)c(-c3ccc(C(F)(F)F)cc3)n2)o1)NO`: the half-inhibitory concentration (IC50) in the data set with HCT-116 [1] was 0.173 µM; at Histone deacetylase 1, 0.0022 µM; against Histone deacetylase 2, 0.0022 µM; on Histone deacetylase 3, 0.0034 µM; in data set [2], 0.006 µM; against Histone deacetylase 8, over 0.6 µM. For the same molecule, the IC50 in the data set on A549 came out at 1.74 µM; in the data set with MCF7, 0.695 µM; in the data set with SW480 it was 0.382 µM. Also, the result in the data set on HCT-116 [3] and with HCT-116 [5] was Active. For the same molecule, the inhibition result in the data set with HCT-116 [4] and with HCT-116 [6] was “Dde” each time. This molecule gave an IC50 at 72 h in the data set “in vitro” of over 10 µM.

Consider `COc1cc(-c2nc(-c3nnc(CCC(=O)NO)o3)cc3c2[nH]c2ccccc23)cc(OC)c1OC`, for which the IC50 in the data set with HCT-116 [1] was determined as 6.97 µM.

Take `O=C(CCc1nnc(-c2cc3c([nH]c4ccccc43)c(-c3ccccc3)n2)o1)NO`: in the data set with HCT-116 [1], the IC50 is over 10 µM.

Turning to `COc1cc(-c2nc(-c3nnc(-c4ccc(C(=O)NO)cc4)o3)cc3c2[nH]c2ccccc23)cc(OC)c1OC`, the IC50 in the data set on HCT-116 [1] was over 10 µM.

Take `Nc1ccccc1NC(=O)c1ccc(-c2nnc(-c3cc4c([nH]c5ccccc54)c(-c4ccc(C(F)(F)F)cc4)n3)o2)cc1`: the IC50 in the data set with HCT-116 [1] is over 10 µM; on Histone deacetylase 1, over 0.6 µM.

On to `COc1cc(-c2nc(-c3nnc(CCCC(=O)NO)o3)cc3c2[nH]c2ccccc23)cc(OC)c1OC`, for which the IC50 in the data set on HCT-116 [1] is 1.85 µM.

On to `COc1cc(-c2nc(-c3nnc(CCCCC(=O)NO)o3)cc3c2[nH]c2ccccc23)cc(OC)c1OC`, for which the IC50 in the data set with HCT-116 [1] is 0.19 µM; on Histone deacetylase 1, 0.0014 µM; at Histone deacetylase 2, 0.0012 µM; at Histone deacetylase 3, 0.0036 µM; in [2] it was 0.0073 µM; against Histone deacetylase 8, over 0.6 µM. Moreover, the figures for the IC50 in the data set on A549 and in the data set on MCF7 were 1.34 µM and 0.541 µM, respectively.

Turning to `O=C(CCCc1nnc(-c2cc3c([nH]c4ccccc43)c(-c3ccc(C(F)(F)F)cc3)n2)o1)NO`, in the data set on HCT-116 [1], the IC50 is 1.36 µM.
